A short description of data set [1]: Metabolite analysis in plasma and liver. The data set is classed as in vivo, mice. Here is the method: Following intravenous injection of [^11C]PK68 (37 MBq, 0.1 mL), the mice (8–9 weeks, 40.1 ± 5.3 g) were killed by cervical dislocation at 5, 15, 30, and 60 min. Blood and liver samples were obtained immediately. Each blood sample was centrifuged in a heparinized tube at 15,000 g for 2 min at 4 °C to separate the plasma. The supernatant was collected in a test tube containing CH3CN, and the resulting mixture was vortexed for 15 s, then centrifuged at 15,000 g for 2 min for deproteinization. The resulting supernatant was collected. Each liver sample was homogenized using a Silent Crusher S homogenizer (Rose scientific, Edmonton, Canada) in ice-cooled saline. The resulting homogenate was mixed with an equivalent amount of CH3CN, and centrifuged at 15,000 g for 2 min for deproteinization. An aliquot of the supernatant (0.1–1.0 mL) obtained from the plasma or liver homogenate was injected into the HPLC system with a radioactivity detector, and analyzed using a Capcell Pak C18 column (4.6 mm i.d. × 250 mm, Shiseido) with a mobile phase [CH3CN/H2O/TFA, (45/55/0.1, v/v/v)] at a flow rate of 1.0 mL/min. The percentage ratio of [^11C]PK68 (tR = 5.0 min) to total radioactivity (corrected for decay) on the HPLC chromatogram was calculated as % = (peak area for [^11C]PK68/total peak area) × 100.

A further data set has as its target T1, RIPK1 (Mus musculus, UniProt Q60855).
T1 construct: RIPK1 in liver of healthy mouse would exist with nonnegligible level; from tissue; host or cells: living healthy mice; volumes of interest on heart, lung, liver, kidney, small intestine, muscle and brain
T1 sequence (Q60855 1-656): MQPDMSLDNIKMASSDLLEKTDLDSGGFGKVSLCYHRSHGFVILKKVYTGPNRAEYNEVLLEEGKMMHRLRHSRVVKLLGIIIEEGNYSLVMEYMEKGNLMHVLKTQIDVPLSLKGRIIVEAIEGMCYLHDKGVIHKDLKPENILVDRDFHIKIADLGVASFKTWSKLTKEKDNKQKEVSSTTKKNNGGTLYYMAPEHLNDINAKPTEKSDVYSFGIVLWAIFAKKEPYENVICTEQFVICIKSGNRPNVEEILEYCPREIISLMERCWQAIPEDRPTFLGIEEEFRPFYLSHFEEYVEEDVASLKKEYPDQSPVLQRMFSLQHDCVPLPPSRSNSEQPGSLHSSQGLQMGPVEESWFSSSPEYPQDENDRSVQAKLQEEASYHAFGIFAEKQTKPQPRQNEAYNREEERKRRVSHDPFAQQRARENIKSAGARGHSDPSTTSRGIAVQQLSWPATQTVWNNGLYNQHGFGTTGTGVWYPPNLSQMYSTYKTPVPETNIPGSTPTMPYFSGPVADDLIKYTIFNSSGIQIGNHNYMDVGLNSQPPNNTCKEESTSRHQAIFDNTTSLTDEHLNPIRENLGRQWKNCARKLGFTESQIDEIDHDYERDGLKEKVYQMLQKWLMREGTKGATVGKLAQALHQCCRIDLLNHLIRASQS
The data set can be described thus: Small-animal PET imaging, baseline and blocking with unlabeled PK68. The data set is classed as in vivo, mice. Here is the method: Each mouse was anesthetized using 1.5% (v/v) isoflurane, and an intravenous catheter was inserted into its tail vein. The mice (10–14 weeks old, 48.1 ± 7.4 g) were subsequently maintained under anesthesia and secured in a custom-designed chamber placed in the center of a small-animal PET scanner (Inveon, Siemens Healthineers, Erlangen, Germany). After adjusting the target position for scanning, dynamic emission scans (in three-dimensional list mode) were performed for 60 min (1 min × 4 frames, 2 min × 8 frames, and 5 min × 8 frames). [^11C]PK68 (11–16 MBq) was injected via a tail vein catheter. The body temperature of each mouse was maintained at 37 °C using a heated (40 °C) water circulation system (T/Pump TP401, Gaymar Industries, NY, USA) during the PET scan. For the blocking study, the mice were pretreated with unlabeled PK68 (1 mg/kg) just before the injection of [^11C]PK68. The obtained dynamic PET images (0.6 mm slice thickness) were reconstructed by filtered-back projection using a Hanning filter, with a Nyquist cutoff of 0.5 cycles per pixel. The time–activity curves (TACs) of [^11C]PK68 were acquired using PMOD software (version 3.4, PMOD Technology, Zurich, Switzerland) from the volumes of interest, which were manually mapped onto the heart, lung, liver, kidney, small-intestine (part of duodenum), muscle, and brain. The radioactivity was decay-corrected to the injection time and is expressed as a standardized uptake value (SUV), normalized for injected radioactivity and body weight. The SUV was calculated according to the following formula: SUV = (radioactivity per milliliter tissue/injected radioactivity) × body weight (g). We also calculated the area under the curve (AUC) using TACs from 0 to 60 min.

[2] abbreviates: blocking with unlabeled PK68 1 mg/kg i.v.

Values joined by “and” are separate entries in the source; they are usually repeats but may differ in a detail not shown here. Equal entries are not always repeated.

For the molecule `Cc1ncc(-c2ccc3nc(N[11C](C)=O)sc3c2)cc1NC(=O)OC1CCCCC1` [[^11C]PK68, Cyclohexyl (5-(2-[^11C-carbonyl]acetamidobenzo[d]thiazol-6-yl)-2-methylpyridin-3-yl)carbamate], the “unchanged [11C]PK68 in liver” value turned out to be 85% in data set [1] (5 min after injection), 67% in data set [1] (15 min after injection), 68% in data set [1] (30 min after injection) and 57% in data set [1] (60 min after injection). Further, the “unchanged [11C]PK68 in plasma” value in data set [1] (5 min after injection) was 85%; in data set [1] (15 min after injection), 66%; in data set [1] (30 min after injection), 65%; in data set [1] (60 min after injection), 57% and > 50%. Besides, on RIPK1 (baseline), the “peak radioactivity in kidney” value came out at 2.7 SUV. Moreover, the “peak radioactivity in liver” value is 4.8 SUV at RIPK1 (baseline) and 4.2 SUV at RIPK1 (setting [2]). In addition, the “uptake of radioactivity by the brain” value on RIPK1 (baseline mice, PET, i.v.) is reported as less than 0.3 SUV. Further, the “time of peak radioactivity in kidney” value on RIPK1 (baseline, after injection) came to 1.5 min. In addition, on RIPK1 (baseline, after injection), the “time of peak radioactivity in liver” value was determined as 2.5 min. In addition, the “peak radioactivity in kidneys” value on RIPK1 (setting [2]) is reported as 2.3 SUV. In addition, the “specific binding for RIPK1 in PET imaging” value at RIPK1 (healthy mice) is “no obvious specific binding”. Moreover, at RIPK1 (n = 2 per group), the “difference in AUC (0-60 min) in liver and kidney, baseline vs blocking” value is recorded as “no significant differences”. The “reduction of maximum SUV in liver and kidney by blocking” value at RIPK1 (unlabeled PK68 1 mg/kg i.v.) is listed as “roughly 15%”.

For the origin of these results see paper PMC8924334, “Synthesis of [^11C]carbonyl-labeled cyclohexyl (5-(2-acetamidobenzo[d]thiazol-6-yl)-2-methylpyridin-3-yl)carbamate ([^11C-carbonyl]PK68) as a potential PET tracer for receptor-interacting protein 1 kinase” (EJNMMI Radiopharmacy and Chemistry, 2022).
